Assay results: patent US20240270748A1 (Merck Patent GmbH, priority 2021, published 2024)
Where a name gives a salt, the structure may show the parent alone.

Tested on: YAP-TEAD interaction
Test: SK-HEP-1 reporter assay (8xTEAD responsive elements driving NanoLuc luciferase)
Format: cell-based
In short: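 SK-HEP-1 cells stably carrying 8×TEAD-driven NanoLuc treated in duplicate, 10-point dose from 30 μM final, 0.3% DMSO, 24 h at 37° C. Luminescence after NanoGlo lysis/substrate addition; IC50 calculated from dose response.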

[1] = Homo sapiens, SK-HEP1, SK-HEP-1 reporter assay, class symbols
[2] = Homo sapiens, SK-HEP1, SK-HEP-1 reporter assay, n.d. = value not detectable below threshold given in parentheses, ND = not determinable within the entire range

IC50 [1] [nM]	Compound	other results
10 to 100	Cn1cc2c3cc(C(=O)N=S4(=O)CC(N)C4)ccc3n(-c3ccc(C(F)(F)F)cc3)c2n1 (stereo not drawn) [Example C270, N-(3-amino-1-oxo-1¿6-thietan-1-ylidene)-2-methyl-8-[4-(trifluoromethyl)phenyl]-2H,8H-pyrazolo[3,4-b]indole-5-carboxamide formate]	–
100 to 10000	Cn1cc2c3nc(CO)ccc3n(-c3ccc(C(F)(F)F)cc3)c2n1 [Example C116, {4-methyl-7-[4-(trifluoromethyl)phenyl]-4,5,7,12-tetraazatricyclo [6.4.0.0^2,6]dodeca-1(8),2,5,9,11-pentaen-11-yl}methanol]	–
100 to 10000	CC(N)CS(C)(=O)=NC(=O)c1ccc2c(c1)c1cn(C)nc1n2-c1ccc(C(F)(F)F)cc1 (stereo not drawn) [Example C145, N-[(2-aminopropyl)(methyl)oxo-λ^6-sulfanylidene]-2-methyl-8-[4-(trifluoromethyl)phenyl]-2H,8H-pyrazolo[3,4-b]indole-5-carboxamide]	–
100 to 10000	CC(NC(=O)c1ccc2c(c1)c1cn(C)nc1n2-c1ccc(C(F)(F)F)cc1)c1ncc[nH]1 (stereo not drawn) [Example B8]	–
100 to 10000	Cn1cc2c3cc(C(=O)N=S4(=O)CCC5(CCNCC5)C4)ccc3n(-c3ccc(C(F)(F)F)cc3)c2n1 (stereo not drawn) [Example C138, 2-methyl-N-{2-oxo-2lambda6-thia-8-azaspiro[4.5]decan-2-ylidene}-8-[4-(trifluoromethyl)phenyl]-2H,8H-pyrazolo[3,4-b]indole-5-carboxamide]	–
100 to 10000	C[C@H](NC(=O)c1ccc2c(c1)c1cn(C)nc1n2-c1ccc(C(F)(F)F)cc1)c1ccnc(N)c1 [Example C264]	–
100 to 10000	CC(NC(=O)c1ccc2c(c1)c1cn(C)nc1n2-c1ccc(C(F)(F)F)cc1)c1cccc(N)n1 (single isomer, unassigned) [Example C186]	–
100 to 10000	Cn1cc2c3nc(C(N)=O)ccc3n(-c3ccc(C(F)(F)F)cc3)c2n1 [Example C229, 4-methyl-7-[4-(trifluoromethyl)phenyl]-4,5,7,12-tetraazatricyclo[6.4.0.0^2,6]dodeca-1(8),2,5,9,11-pentaene-11-carboxamide]	–
100 to 10000	Cn1cc2c3cc(C(=O)N4CC(CF)C4)ccc3n(-c3ccc(C(F)(F)F)cc3)c2n1 [Example C60, 3-(fluoromethyl)-1-{2-methyl-8-[4-(trifluoromethyl)phenyl]-2H,8H-pyrazolo[3,4-b]indole-5-carbonyl}azetidine]	–
100 to 10000	Cn1cc2c3cc(C(=O)/N=S4/CC(N)CO4)ccc3n(-c3ccc(C(F)(F)F)cc3)c2n1 (stereo not drawn) [Example C269, N-(4-amino-1,2lambda4-oxathiolan-2-ylidene)-2-methyl-8-[4-(trifluoromethyl)phenyl]-2H,8H-pyrazolo[3,4-b]indole-5-carboxamide formate]	–
> 10000	Cn1cc2c3cc(NC(=O)Cc4ccccn4)ccc3n(-c3ccc(C(F)(F)F)cc3)c2n1 [Example C22, N-{2-methyl-8-[4-(trifluoromethyl)-phenyl]-2H,8H-pyrazolo[3,4-b]indol-5-yl}-2-(pyridin-2-yl)acetamide]	–
100 to 10000	CC(CNC(=O)c1ccc2c(c1)c1cn(C)nc1n2-c1ccc(C(F)(F)F)cc1)c1ccc(F)nc1 (stereo not drawn) [Example B92]	–
100 to 10000	Cn1cc2c3cc(C(=O)NC4CCNCC4)ccc3n(-c3ccc(C(F)(F)F)cc3)c2n1 [Example C203, 2-methyl-N-(piperidin-4-yl)-8-[4-(trifluoromethyl)phenyl]-2H,8H-pyrazolo[3,4-b]indole-5-carboxamide trifluoroacetate]	–
100 to 10000	Cn1cc2c3cc(C(=O)N=S(C)(=O)CCN)ccc3n(-c3ccc(C(F)(F)F)cc3)c2n1 (stereo not drawn) [Example C36, N-[(2-aminoethyl) (methyl)οxο-λ^6-sulfanylidene]-2-methyl-8-[4-(trifluoromethyl)phenyl]-2H,8H-pyrazolo[3,4-b]indole-5-carboxamide]	–
100 to 10000	CCN1CCC(NC(=O)c2ccc3c(c2)c2cn(C)nc2n3-c2ccc(C(F)(F)F)cc2)CC1 [Example C136, N-(1-ethylpiperidin-4-yl)-2-methyl-8-[4-(trifluoromethyl)phenyl]-2H,8H-pyrazolo[3,4-b]indole-5-carboxamide trifluoroacetate]	–
100 to 10000	Cn1cc2c3cc(C(N)=O)cnc3n(-c3ccc(C(F)(F)F)cc3)c2n1 [Example C118, 4-methyl-7-[4-(trifluoromethyl)phenyl]-4,5,7,9-tetraazatricyclo[6.4.0.0^2,6]dodeca-1(8),2,5,9,11-pentaene-11-carboxamide]	–
100 to 10000	Cn1cc2c3cc(C(=O)NC[C@@H](O)C(F)(F)F)ccc3n(-c3ccc(C(F)(F)F)cc3)c2n1 [Example C135, 2-methyl-N-[(2R)-3,3,3-trifluoro-2-hydroxypropyl]-8-[4-(trifluoromethyl)phenyl]-2H,8H-pyrazolo[3,4-b]indole-5-carboxamide]	–

Further lines, the compound ahead of its results:

Compound	IC50 [1] [nM]	other results
C[C@@H](NC(=O)c1ccc2c(n1)c1cn(C)nc1n2-c1ccc(C(F)(F)F)cc1)c1ccccn1 [Example C114, 4-methyl-N-[(1R)-1-(pyridin-2-yl)ethyl]-7-[4-(trifluoromethyl)phenyl]-4,5,7,12-tetraazatricyclo[6.4.0.0^2,6]dodeca-1(8),2,5,9,11-pentaene-11-carboxamide]	100 to 10000	–
Cn1cnc2c1c1cc(C3CC(n4ccnn4)=NO3)ccc1n2-c1ccc(C(F)(F)F)cc1 (stereo not drawn) [Example C211, 1-(5-{1-methyl-4-[4-(trifluoromethyl)phenyl]-1H,4H-imidazo[4,5-b]indol-7-yl}-4,5-dihydro-1,2-oxazol-3-yl)-1H-1,2,3-triazole]	100 to 10000	–
Cn1cc2c(n1)c1cc(S(=O)(=O)N3CCC[C@@H]3c3cncnc3)ccc1n2-c1ccc(C(F)(F)F)cc1 (single isomer, unassigned) [Example C61]	–	IC50 [2]: > 1000 nM
Cn1cc2c(n1)c1cc(S(=O)(=O)N3C[C@@H](O)C[C@H]3c3ccccc3)ccc1n2-c1ccc(C(F)(F)F)cc1 (single isomer, unassigned) [Example C47]	–	IC50 [2]: > 10000 nM
CCCn1cc2c3cc(C(=O)N[C@@H](CO)c4ccccn4)ccc3n(-c3ccc(C(F)(F)F)cc3)c2n1 [Example C255, N-[(1R)-2-hydroxy-1-(pyridin-2-yl)ethyl]-2-propyl-8-[4-(trifluoromethyl)phenyl]-2H,8H-pyrazolo[3,4-b]indole-5-carboxamide]	> 10000	–
Cn1cc2c(n1)c1cc(S(=O)(=O)N3C[C@H](O)C[C@H]3c3ccccc3)ccc1n2-c1ccc(C(F)(F)F)cc1 (single isomer, unassigned) [Example C46]	–	IC50 [2]: > 1000 nM
CCn1cc2c3cc(C(=O)N[C@@H](CO)c4ccccn4)ccc3n(-c3ccc(C(F)(F)F)cc3)c2n1 [Example C256, 2-ethyl-N-[(1R)-2-hydroxy-1-(pyridin-2-yl)ethyl]-8-[4-(trifluoromethyl)phenyl]-2H,8H-pyrazolo[3,4-b]indole-5-carboxamide]	1 to 10	–
COCC[C@H](CO)NC(=O)c1ccc2c(c1)c1c(C)snc1n2-c1ccc(C(F)(F)F)cc1 (single isomer, unassigned) [Example C93]	100 to 10000	–
Cc1snc2c1c1cc(C(=O)N3CC[C@H](O)C3)ccc1n2-c1ccc(C(F)(F)F)cc1 [Example C49, (3S)-1-{3-methyl-8-[4-(trifluoromethyl)phenyl]-8H-[1,2]thiazolo [3,4-b]indole-5-carbonyl}pyrrolidin-3-ol]	100 to 10000	–
Cn1cc2c(n1)c1cc(S(=O)(=O)N3CCC[C@H]3c3cncnc3)ccc1n2-c1ccc(C(F)(F)F)cc1 (single isomer, unassigned) [Example C68]	100 to 10000	–
Cn1nnc2c3cc(S(=O)(=O)O)ccc3n(-c3ccc(C(F)(F)F)cc3)c21 [Example C44, 3-methyl-4-[4-(trifluoromethyl)phenyl]-3H,4H-[1,2,3]triazolo[4,5-b]indole-7-sulfonic acid]	–	IC50 [2]: > 30000 nM
COCCNC(=O)c1ccc2c(n1)c1cn(C)nc1n2-c1ccc(C(F)(F)F)cc1 [Example C112, N-(2-methoxyethyl)-4-methyl-7-[4-(trifluoromethyl)phenyl]-4,5,7,12-tetraazatricyclo [6.4.0.0^2,6]dodeca-1(8),2,5,9,11-pentaene-11-carboxamide]	100 to 10000	–
Cn1nc2c3cc(C(=O)NC(CO)c4nncn4C)ccc3n(-c3ccc(C(F)(F)F)cc3)c2n1 (stereo not drawn) [Example C274, N-[2-hydroxy-1-(4-methyl-4H-1,2,4-triazol-3-yl)ethyl]-2-methyl-4-[4-(trifluoromethyl)phenyl]-2H,4H-[1,2,3]triazolo[4,5-b]indole-7-carboxamide]	100 to 10000	–
Cn1cc2c3cc(C(=O)N4CC[C@@H](O)C4)ccc3n(-c3ccc(C(F)(F)F)cn3)c2n1 [Example C152, (3R)-1-{2-methyl-8-[5-(trifluoromethyl)pyridin-2-yl]-2H,8H-pyrazolo[3,4-b]indole-5-carbonyl}pyrrolidin-3-ol]	> 10000	–
COCCC(CO)NC(=O)c1ccc2c(c1)c1cn(C)nc1n2-c1ccc(C(F)(F)F)cc1 (single isomer, unassigned) [Example C246]	–	IC50 (SK-HEP-1 reporter assay, class symbols): 100 to 10000 nM
Cn1cnc2c1c1cc(C3CC(Br)=NO3)ccc1n2-c1ccc(C(F)(F)F)cc1 (stereo not drawn) [Example C158, 3-bromo-5-{1-methyl-4-[4-(trifluoromethyl)phenyl]-1H,4H-imidazo[4,5-b]indol-7-yl}-4,5-dihydro-1,2-oxazole]	100 to 10000	–
Cn1nc2c3cc(C(=O)N=[S@@](=O)(CCO)Cc4ccncc4)ccc3n(-c3ccc(C(F)(F)F)cc3)c2n1 (single isomer, unassigned) [Example C266]	100 to 10000	–
Cc1snc2c1c1cc(C(=O)N[C@@H](CO)C(C)C)ccc1n2-c1ccc(C(F)(F)F)cc1 [Example C92, N-[(2R)-1-hydroxy-3-methylbutan-2-yl]-3-methyl-8-[4-(trifluoromethyl)phenyl]-8H-[1,2]thiazolo[3,4-b]indole-5-carboxamide]	10 to 100	–
Cn1cc2c3cc(C4CC(n5nccn5)=NO4)ccc3n(-c3ccc(C(F)(F)F)cc3)c2n1 (stereo not drawn) [Example C38, 2-(5-{2-methyl-8-[4-(trifluoromethyl)phenyl]-2H,8H-pyrazolo[3,4-b]indol-5-yl}-4,5-dihydro-1,2-oxazol-3-yl)-2H-1,2,3-triazole]	> 10000	–
